Marks after values point to notes of the source that are not given here.

In series [1] the test system is point mutants of the Canton variant of G6PD. The series can be described thus: Effect of point mutations of Canton G6PD on compound activity. Format: biochemical, human. The note with it: mutations on the side opposite the putative binding site. As for the experimental part: The gene encoding wild-type (WT) G6PD was inserted into the pET-28a vector, using NdeI and SalI restriction sites by polymerase chain reaction (PCR). Site-directed mutagenesis to generate G6PD variants was performed using appropriate primer sets according to the manufacturer's guidelines (Agilent). All constructs were verified by sequencing.
Enzyme activity was measured by monitoring NADPH production, which was coupled with diaphorase converting resazurin to fluorescent resorufin (excitation at 565 nm and emission at 590 nm); fluorescent signal was thus proportional to G6PD activity. Assays were performed at 25° C. and run for 5 minutes in buffer containing 50 mM Tris (pH 7.4), 0.5 mM EDTA, 3.3 mM MgCl2, 1 U/ml diaphorase, 0.1 mM resazurin. 10 ng of recombinant enzymes or 10 μg of cell lysates was used for the assay with 10 μM NADP^+ (Sigma) as cofactor and 100 μM G6P (Sigma) as substrate. Steady-state kinetic parameters were obtained by varying concentrations of NADP^+ (0-10 μM) with a constant concentration of G6P (100 μM) and similarly for G6P (0-100 μM) with a constant concentration of NADP^+ (10 μM) with 10 ng of recombinant enzymes. Data analysis was performed using GraphPad Prism software v.6 (GraphPad Software, La Jolla, Calif. USA). Kinetic parameters were obtained by fitting the data to the Michaelis-Menten equation. […]

The next series relates to G6PD. The series can be described thus: G6PD activation activity, compounds with various linkers. Format: biochemical. The note with it: 100 uM compound.
Series [2] concerns the target T1, wt G6PD obtained from a blood sample (Homo sapiens, UniProt P11413).
T1 construct: tissue Stanford Blood Center; host or cells: blood / erythrocytes
The series can be described thus: G6PD enzyme activation on wt G6PD from a blood sample. Format: biochemical. The note with it: 100 uM compound. As for the experimental part: Enzyme activity was measured by monitoring NADPH production, which was coupled with diaphorase converting resazurin to fluorescent resorufin (excitation at 565 nm and emission at 590 nm); fluorescent signal was thus proportional to G6PD activity. Assays were performed at 25° C. and run for 5 minutes in buffer containing 50 mM Tris (pH 7.4), 0.5 mM EDTA, 3.3 mM MgCl2, 1 U/ml diaphorase, 0.1 mM resazurin. 10 ng of recombinant enzymes or 10 μg of cell lysates was used for the assay with 10 μM NADP^+ (Sigma) as cofactor and 100 μM G6P (Sigma) as substrate. […]
De-identified blood samples were obtained from the Stanford Blood Center. […] G6PD activity was measured (Beutler E. Red cell metabolism: A manual of biochemical methods (3rd edition). Grune & Stratton (1984)). […] Hemoglobin release in the supernatant was monitored by measuring absorbance at 540 nm. […] After wash, the samples were lysed with 0.1% Triton X-100 (final concentration), and the florescence was analyzed with excitation/emission at 485/525 nm. GSH measurement was determined using a Cayman glutathione assay kit (Cayman Chemicals, 703002). […] The absorbance was read at 412 nm. For storage assay, a 5% erythrocyte suspension was stored at 4° C. with and without 1 μM AG1, and hemolysis and G6PD activity were monitored every week for 28 days to examine whether AG1 improves preservation of erythrocytes over time. […]

Another series deals with T2, Canton W509A G6PD (Homo sapiens, UniProt P11413, R459L/W509A).
T2 construct: His (pET-28a) (N, cleaved yes); made in house; host or cells: E. coli C43 (DE3)
The series can be described thus: Canton W509A G6PD enzyme activation. Type of series: biochemical. As for the experimental part: (§1) Enzyme activity was measured by monitoring NADPH production, which was coupled with diaphorase converting resazurin to fluorescent resorufin (excitation at 565 nm and emission at 590 nm); fluorescent signal was thus proportional to G6PD activity. Assays were performed at 25° C. and run for 5 minutes in buffer containing 50 mM Tris (pH 7.4), 0.5 mM EDTA, 3.3 mM MgCl2, 1 U/ml diaphorase, 0.1 mM resazurin. 10 ng of recombinant enzymes or 10 μg of cell lysates was used for the assay with 10 μM NADP^+ (Sigma) as cofactor and 100 μM G6P (Sigma) as substrate. Steady-state kinetic parameters were obtained by varying concentrations of NADP^+ (0-10 μM) with a constant concentration of G6P (100 μM) and similarly for G6P (0-100 μM) with a constant concentration of NADP^+ (10 μM) with 10 ng of recombinant enzymes. Data analysis was performed using GraphPad Prism software v.6 (GraphPad Software, La Jolla, Calif. USA). Kinetic parameters were obtained by fitting the data to the Michaelis-Menten equation.
(§2) Based on preliminary results with compound AG1, a variety of compounds of interest were prepared and assessed in G6PD enzyme activation assays, according to the methods described herein.

For the next series, the target named is T3, Canton G6PD (Homo sapiens, UniProt P11413, R459L).
T3 construct: His (pET-28a) (N, cleaved yes); made in house; host or cells: E. coli C43 (DE3)
Nature of the series: Canton G6PD enzyme activity, diaphorase-coupled assay. The note with it: Canton G6PD. Format: biochemical. On the procedure:
as §1
The diaphorase-coupled enzyme assay as described above was used to screen a library of compounds for small molecule activators. The compounds were added to Canton G6PD enzyme reaction mixture at a final concentration of 16.67 μM using Caliper Life Sciences Staccato system with a Twister II robot and a Sciclone ALH3000 (Caliper Life Sciences, Alameda, Calif. USA) integrated with a V&P Scientific pin tool, which was followed by incubation for 3 hours. Addition of G6P then initiated the reaction, which was run for 2.5 minutes. The fluorescent signals were recorded 4 times during the run using Molecular Devices AnalystGT (Molecular Devices, Sunnyvale, Calif. USA). Any compounds showing 30% activation of the enzyme were rescreened in a dose-dependent manner (0-30 μM, duplicate) to identify potential hits.
as §2

Another series concerns zebrafish embryos. The series can be described thus: Pericardial edema in zebrafish embryos. Format: in vivo. The note with it: 50 μg/ml at 24 hpf. As for the experimental part: Embryos were dechorinated with pronase at 24 hours post fertilization (hpf) and treated with 50 μg/ml of chloroquine and/or AG1 by directly adding the compounds to the well. For ROS measurements, embryos were incubated with compounds for 2 hours, and then the ROS detecting reagent (CM-H2DCFDA) was added at a final concentration of 500 ng/ml to the well for a total treatment time of 5 hours. One embryo was placed to each well of a black, opaque 96-well plate. The florescence was analyzed with excitation/emission at 485/525 nm. After ROS assays, embryos at about 32 hpf were pooled and lysed in buffer containing 50 mM Tris (pH 7.4), 150 mM NaCl, 1 mM EDTA, 0.1% NP-40, and protease inhibitor cocktail, which was followed by three cycles of freeze and thawing in liquid nitrogen. The lysate was centrifuged at 14,000 rpm at 4° C. for 15 minutes. Total protein concentration in the supernatants (total lysate) was determined by Bradford method. 50 μg of total lysate was loaded onto 10% SDS-PAGE gels and the protein level was examined by Western blot using anti-G6PD antibody (Abcam (G6PD: AB87230)). 10 μg of total lysate was used for enzymatic assay. 50 μg of the lysate was used to measure NADPH levels using a NADPH quantification kit (Biovision), according to the manufacturer's instructions.
Live embryos were anesthetized and mounted in 3% methylcellulose. Embryos were imaged with a Leica M205FA microscope equipped with a 1.0× Plan Apochromatic objective and a SPOT Flex camera or a Leica DM4500B compound microscope equipped with a QImaging Retiga-SRV camera. For hemoglobin staining, fixed embryos were stained with o-dianisidine as previously reported (10), cleared, mounted in 100% glycerol, and imaged with a Leica M205FA microscope equipped with a 1.0× Plan Apochromatic objective and a SPOT Flex camera. All images were captured using SPOT or MetaMorph imaging software (Diagnostic Imaging Inc.) and processed in Photoshop (Adobe). Adjustments were limited to brightness levels and cropping. Analysis was carried out by an observer blinded to the experimental conditions.

T1 sequence (P11413 2-515 limits assumed): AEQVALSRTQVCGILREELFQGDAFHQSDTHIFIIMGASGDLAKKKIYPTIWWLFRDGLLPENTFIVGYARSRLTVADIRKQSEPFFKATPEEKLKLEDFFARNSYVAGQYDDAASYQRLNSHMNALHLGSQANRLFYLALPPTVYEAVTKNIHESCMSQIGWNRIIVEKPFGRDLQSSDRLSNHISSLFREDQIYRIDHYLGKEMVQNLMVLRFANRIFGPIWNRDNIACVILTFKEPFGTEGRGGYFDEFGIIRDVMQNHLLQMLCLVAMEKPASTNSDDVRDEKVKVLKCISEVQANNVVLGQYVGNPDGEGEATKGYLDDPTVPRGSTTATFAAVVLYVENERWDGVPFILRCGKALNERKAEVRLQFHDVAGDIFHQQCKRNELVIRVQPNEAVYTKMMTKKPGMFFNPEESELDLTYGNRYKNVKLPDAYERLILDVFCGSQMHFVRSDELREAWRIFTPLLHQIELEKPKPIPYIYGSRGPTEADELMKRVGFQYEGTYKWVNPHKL
T2 sequence (P11413 whole entry R459L/W509A): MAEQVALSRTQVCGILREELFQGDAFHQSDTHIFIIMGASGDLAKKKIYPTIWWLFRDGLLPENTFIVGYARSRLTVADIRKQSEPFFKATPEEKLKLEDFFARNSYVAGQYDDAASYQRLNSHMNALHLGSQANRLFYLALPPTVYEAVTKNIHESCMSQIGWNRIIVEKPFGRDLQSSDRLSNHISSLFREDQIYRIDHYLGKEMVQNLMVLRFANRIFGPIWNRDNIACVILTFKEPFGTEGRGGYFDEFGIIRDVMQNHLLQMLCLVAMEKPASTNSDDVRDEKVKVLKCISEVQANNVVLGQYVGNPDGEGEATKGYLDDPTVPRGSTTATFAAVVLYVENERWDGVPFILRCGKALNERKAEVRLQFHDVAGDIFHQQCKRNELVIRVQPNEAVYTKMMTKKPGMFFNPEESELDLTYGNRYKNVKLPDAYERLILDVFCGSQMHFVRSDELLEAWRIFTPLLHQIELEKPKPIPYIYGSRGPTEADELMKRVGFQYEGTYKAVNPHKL
T3 sequence (P11413 whole entry R459L): as the sequence (P11413 whole entry R459L/W509A) above, with A509W counted along it

As for “2-[2-(1H-indol-3-yl)ethylamino]ethanethiol [AG1]”, the “effect of mutations on AC50” value in series [1] was “no effect on AC50”. Also, the “Enzyme activity (%)” value with G6PD is given as 156%^c; in series [2] it was 127%.

As a reminder, the AC50 is the midpoint of the concentration-response curve, whichever way the signal moves. A higher AC50 goes with activity only at high concentration. In the case of `c1cc(CNCCc2ccc3c(c2)OCO3)c2c(CNCCc3ccc4c(c3)OCO4)cccc2c1` [AR4-078], on Canton W509A G6PD, the half-maximal activity concentration (AC50) stood at 58 µM and the Amax worked out at 3.8. For the same compound, at Canton G6PD, the AC50 worked out at 74 µM and the Amax is given as 2.0. In series [2], the enzyme activity at 100 µM is 154%.

`CCN(CC)CCCC(C)Nc1ccnc2cc(Cl)ccc12` (stereo not drawn) [chloroquine, reference compound]: in the series on zebrafish embryos, the “effect of chloroquine on embryos” value was “led to pericardial edema and increased ROS levels”.

The record behind these values is patent US20200223826A1, “Glucose-6-Phosphate Dehydrogenase (G6PD)-Modulating Agents And Methods Of Treating G6PD Deficiency” (The Board of Trustees of the Leland Stanford Junior …, priority 2017, published 2020).
